Where two headings read alike, the source gives them in different places.

Data set [1] deals with PMA-treated THP1 macrophages. Description: IL-1β release from LPS+ATP-stimulated PMA-THP1 macrophages (western blot/ELISA). It counts as cell-based, human. The following applies: 100 μM compound; 10 ng/mL LPS 3 hours + 5 mM ATP 6 hours; FIG. 6E, 6I. How it is done: Human THP-1 cells were cultured in RPMI 1640 media, supplemented with 10% FBS and differentiated by treatment for 3 hours with 100 nM phorbol-12-myristate-13-acetate (PMA, Invivogen). After 2 days, macrophage THP-1 cells were stimulated first 3 hours with ultrapure LPS from E. coli (10 ng/ml, LPS) and then stimulated for 6 hours with ATP (5 mM, Sigma) or treated with 50 ng or 20 ng of IFNg during 24 or 12 hours as indicated. Then, supernatants and cells were collected for western blot analysis.
Cells or supernatant were lysed in appropriated buffer (250 mM NaCl, 0.1% NP-40, 5 mM EDTA, 10 mM Na3VO4, 10 mM NaF, 5 mM DTT, 3 mM Na4P2O7, 1 mM EGTA, 10 mM Glycerol phosphate, 10 mM Tris-Hcl (pH=7.5) and the protease and phosphatase inhibitors (Roche)). Equal amount of supernatant or 10-40 μg of protein extracts were run on 4-12% or 10% SDS-PAGE and transferred at 4° C. onto a nitrocellulose membrane (0.2 Micron). After incubation for 2 hours at room temperature with 5% nonfat milk or BSA (Bovine Serum Albumine) in Tris-buffered saline and 0.1% Tween 20 (TBS-Tween), membranes were incubated with primary antibody at 4° C. overnight. […] The primary antibodies against. […] Western blots shown are representative of at least of three independent experiments.
(§1) Plasma serum from P2y2^+/+ and P2y2^−/− mice and supernatants harvested from PMA-stimulated THP1 macrophages that were depleted or not for P2Y2 or NLRP3, and/or stimulated with 10 ng/mL LPS during 3 hours and 5 mM ATP during 6 hours or with 20 ng/mL IFNγ, in presence or in absence of 100 μM Suramin, 100 μM OxATP, 100 μM Kaempferol or 100 μM Diquafosol at indicated times were analyzed using western blot or ELISA for IL-1β (Ebioscience) and IL-10 (BD) according to the manufacturers' instructions.

Data set [2] concerns human monocyte derived macrophages (MDMs). Description: IL-1β release from monocyte derived macrophages (MDMs). It counts as cell-based. The following applies: 100 μM, FIG. 6G.
In data set [3] the test system is MDMs. Description: IRF5 expression in MDMs (western blot). It counts as cell-based, human. The following applies: FIG. 6N.
The subject of data set [4] is PMA-treated THP1 macrophages. Description: IL-10 secretion by PMA-treated THP1 macrophages. It counts as cell-based, human. The following applies: 100 μM, FIG. 6J. How it is done: as §1
Data set [5] concerns MDMs. Description: IL-10 secretion by MDMs. The following applies: 100 μM, FIG. 6K. It counts as cell-based, human.
Data set [6] deals with MDMs. It counts as cell-based, human. The following applies: FIG. 6L, 6M.
The test system of data set [7] is MDMs. Description: Microarray of human macrophage polarization-specific markers in MDMs. It counts as cell-based. The following applies: 100 μM, 72 hours, FIG. 6Q. How it is done:
MDMS were treated with 100 μM Kaempferol during 72 hours. Then, mRNAs were isolated using RNeasy kit (#74104, Quiagen) and gene expression analyses were performed with Agilent® SurePrint G3 Human GE 8x60K Microarray (Agilent Technologies, AMADID 39494) with the following single-color design. RNAs were labeled with Cy3 using the one-color Agilent labeling kit (Low Input Quick Amp Labeling Kit 5190-2306) adapted for small amount of total RNA (100 ng total RNA per reaction). Hybridization were then performed on microarray using 800 ng of linearly amplified cRNA labeled, following the manufacturer protocol (Agilent SureHyb Chamber; 800 ng of labeled extract; duration of hybridization of 17 hours; 40 μL per array; Temperature of 65° C.). […] Microarray images were analyzed by means of Feature Extraction software version (10.7.3.1) from Agitent technologies. […]
Raw data files from Feature Extraction were imported into R with LIMMA (Smyth, 2004, Statistical applications in Genetics and molecular biology, vol 3, N°1, article 3), an R package from the Bioconductor project, and processed as follow: gMedianSignal data were imported, controls probes were systematically removed, and flagged probes (gisSaturated, glsFeatpopnOL, glsFeatNonUnifOL) were set to NA. […] Normalized data were then analyzed. […]

Data set [8] relates to PMA-differentiated THP1 macrophages. Description: LDH release from PMA-differentiated THP1 macrophages. It counts as cell-based, human. The following applies: treated or not with LPS and ATP; FIG. 5H.
The test system of data set [9] is SARS-CoV-2. It counts as cell-based. The following applies: Vero E6, 72 hours infection, MOI 1-2, indicated concentrations, MTT.
Data set [10] relates to SARS-CoV-2. It counts as cell-based. The following applies: Vero E6, 24 hours, 50 μM PPADS, 100 μM OxATP.
In data set [11] the test system is SARS-CoV-2. It counts as cell-based. The following applies: FIG. 7K.
Data set [12] has as its system ACE2. It counts as cell-based, African green monkey. The following applies: Vero E6, 24 hours; 500 μM UTP, 100 μM Diquafosol, 5 μM Denufosol, 50 μM PPADS, 100 μM OxATP, 100 μM BzATP; FIG. 14A.
In data set [13] the test system is ACE2. It counts as cell-based. The following applies: ACE2-A549, 24 hours; same concentrations; FIG. 14B.
For a further data set, the system named is Vero E6 cells. The following applies: Vero E6, 72 hours, MTT; PPADS and OxATP at 100 μM; BzATP indicated concentrations.
A further data set concerns ACE2-A549 cells. The following applies: ACE2-A549, 72 hours, MTT; PPADS and OxATP at 100 μM; BzATP indicated concentrations.
Data set [14] relates to SARS-CoV-2. The following applies: reference 50; cited from earlier work.
The next data set addresses T1, P2Y2-NLRP3 interaction (Homo sapiens, UniProt P41231).
T1 construct: Frequency of P2Y2-NLRP3 PLA+ cells detected after treatment of PMA-primed THP1 with 100 μM AR-C118925XX; endogenous in cells; host or cells: PMA-primed THP1 macrophages (ATCC)
Description: P2Y2-NLRP3 proximity ligation assay in PMA-primed THP1. It counts as cell-based. The following applies: 100 μM, 96 hours; FIG. 10A.

Data set [15] relates to COVID-19 patients with severe inflammatory failure. The following applies: early administration; retrospective study, reference 51; cited from earlier work.

T1 sequence (P41231 whole entry): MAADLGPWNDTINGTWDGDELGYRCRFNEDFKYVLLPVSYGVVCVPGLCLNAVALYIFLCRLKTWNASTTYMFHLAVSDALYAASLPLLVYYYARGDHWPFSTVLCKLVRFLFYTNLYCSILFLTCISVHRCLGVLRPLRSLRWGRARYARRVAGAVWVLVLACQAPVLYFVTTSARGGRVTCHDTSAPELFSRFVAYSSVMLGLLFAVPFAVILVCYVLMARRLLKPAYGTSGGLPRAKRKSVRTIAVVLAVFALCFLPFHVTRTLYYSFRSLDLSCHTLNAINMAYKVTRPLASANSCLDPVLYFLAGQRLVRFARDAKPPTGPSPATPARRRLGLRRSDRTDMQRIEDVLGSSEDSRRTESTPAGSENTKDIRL

Consider `O=c1c(O)c(-c2ccc(O)cc2)oc2cc(O)cc(O)c12` [Kaempferol], for which the IL-1β release result in data set [1] and in data set [2] was “increased IL-1β release” throughout. Besides, in the data set on MDMs [3], the “expression of IRF5” value is “increased expression of the pro-inflammatory transcription factor IFN regulatory factor 5 (IRF5)”. For the same compound, the “secretion of IL-10” value (in data set [4]; in the data set with MDMs [5]) was “reduced secretion of the immunosuppressive cytokine interleukin-10 (IL-10)” in each case. Further, the “membrane expression of CD163” value in the data set with MDMs [6] is given as “diminished membrane expression of anti-inflammatory macrophage activation marker CD163”. In addition, the “known human markers of macrophage activation induced” value in the data set on MDMs [7] is 90%. Further, the “LDH release (cell death marker)” value in data set [8] was “released the cell death marker, lactate dehydrogenase (LDH)”.
For `Nc1ncnc2c1ncn2[C@@H](C=O)O[C@@H](C=O)COP(=O)(O)OP(=O)(O)OP(=O)(O)O` [OxATP, oxidized ATP], the IL-1β release result in data set [1] is “reduced IL-1β release”. Moreover, the “cytopathogenicity / cytopathogenic effects of SARS-CoV-2” value in the data set on SARS-CoV-2 [9] is given as “reduced”. Further, the “frequency of Spike-positive cells” value in the data set with SARS-CoV-2 [10] was “reduced the frequency of Spike-positive cells”. Besides, the “intracellular expression of Spike” value in the data set on SARS-CoV-2 [11] (Vero E6, 24 hours, 50 μM PPADS, 100 μM OxATP, 100 μM BzATP) is given as “reduced”. Further, in the data set on SARS-CoV-2 [11] ([…], western blot), the “ACE2 expression in response to SARS-CoV-2 infection” value is on record as “repressed ACE2 down regulation”. Further, the ACE2 membrane expression result with ACE2 [12] and in the data set on ACE2 [13] was “did not change” in each case. The “viability of uninfected cells” value in the data set on Vero E6 cells and in the data set with ACE2-A549 cells was “partially affected viability” in each case.
For Ivermectin, in the data set on SARS-CoV-2 [14], the “replication of SARS-CoV-2 in vitro” value is listed as “inhibit the replication of SARS-CoV-2 in vitro”.
Take `Cc1ccc2c(c1)C=Cc1cc(C)ccc1C2c1cn(Cc2ccc(C(=O)Nc3nn[nH]n3)o2)c(=O)[nH]c1=S` [AR-C118925XX]: on P2Y2-NLRP3 interaction, the “P2Y2-NLRP3 interaction (frequency of PLA+ cells)” value is “enhanced the P2Y2-NLRP3 interaction”.
In the case of anakinra: IL-1 receptor antagonist, the “prognosis of COVID-19 patients” value in [15] is “significantly improved prognosis of COVID-19 patients with severe inflammatory failure”.

The record behind these values is US20230302031A1, “Modulators Of Purinergic Receptors and Related Immune Checkpoint For Treating Acute Respiratory Distress Syndrome” (priority 2020, published 2023).
